Here are results for three compounds from patent US11034717B2, “Farnesoid X receptor modulators” (Intercept Pharmaceuticals, Inc., priority 2015, dated 2021).

What is called EC50 is the concentration at which the effect is half-maximal. A higher EC50 goes with a less potent agent. In general, IC50 refers to the concentration that gives 50% inhibition.

Where two headings read alike, the source gives them in different places. Some results are limits rather than exact numbers.

The target in data set [1] is T1, hTGR5 (Homo sapiens (Human), UniProt Q8TDU6). The data set can be described thus: HTR-FRET intracellular cAMP assay in NCI-H716 cells. Format: cell-based. As to conditions: Table 2.
T1 sequence (Q8TDU6 whole entry): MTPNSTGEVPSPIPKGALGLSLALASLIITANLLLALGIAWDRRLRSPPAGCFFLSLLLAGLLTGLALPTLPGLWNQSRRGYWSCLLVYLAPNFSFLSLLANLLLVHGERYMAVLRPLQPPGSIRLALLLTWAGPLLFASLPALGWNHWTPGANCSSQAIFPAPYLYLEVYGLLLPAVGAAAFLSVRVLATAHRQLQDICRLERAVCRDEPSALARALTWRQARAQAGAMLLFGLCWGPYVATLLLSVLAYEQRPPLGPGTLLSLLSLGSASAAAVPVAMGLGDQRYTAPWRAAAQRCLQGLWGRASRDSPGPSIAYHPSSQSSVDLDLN
Data set [2] deals with T1, hTGR5. The data set is described as follows: Cross species TGR5 activity, CHO cells, human. It is filed as cell-based.
The next data set concerns the target mTGR5 (Mus musculus (Mouse), UniProt Q80SS6). The data set is described as follows: Cross species TGR5 activity, CHO cells, mouse. Format: cell-based.
The next data set has as its target rTGR5 (Rattus norvegicus (Rat), UniProt Q80T02). The data set can be described thus: Cross species TGR5 activity, CHO cells, rat. It is filed as cell-based.
In another data set the test system is dTGR5. The data set is described as follows: Cross species TGR5 activity, CHO cells, dog. It is filed as cell-based.
Data set [3] concerns nuclear receptors LXRP, PXR, CAR, PPARα, PPARγ, RAR, RARα, VDR, TR, PR, RXR, GR, and ER. The data set can be described thus: Nuclear receptor selectivity profile (AlphaScreen). Format: biochemical. Conditions: for Activation of nuclear receptor panel, agonist mode: dose response to 200 μM; for Activity on nuclear receptor panel, antagonist mode: fixed concentration at 10 μM. The protocol: Using the AlphaScreen assay, the selectivity of a compound of the invention against the following nuclear receptors involved in the metabolic pathways can be evaluated: LXRP, PXR, CAR, PPARα, PPARα, PPARγ, RAR, RARα, VDR, TR, PR, RXR, GR, and ER.
Compounds L1, 3, 5, 6 and 7 were tested against the panel of available nuclear receptor in both agonist and antagonist mode.
On the technique in general: Alpha assays give light when donor and acceptor beads are brought close together.

Data set [4] has as its system FXR target genes: BSEP, SHP, OSTβ and CYP7A1. The data set can be described thus: FXR target gene panel, quantitative RT-PCR in HepG2 cells. Format: cell-based. As to conditions: stimulation for 18 hours. The protocol:
To evaluate the capacity of a compound of the invention to modulate FXR target genes, quantitative RT-PCR assays are performed. HepG2 cells are selected as a relevant cell line to determine whether a compound of the invention can regulate the endogenous FXR genetic network. The ability of a compound of the invention to induce FXR target genes is assessed by isolating total RNA from cells treated overnight with 1 μM of compounds A, B, and a compound of the invention.
FXR regulates the expression of several target genes involved in BA homeostasis. Briefly, FXR plays a central role in several metabolic pathways, including i.e., lipid metabolism, bile-acids metabolism, and carbohydrate metabolism. Regarding gene expression profiling, the genes encoding proteins involved in lipid metabolism include, e.g., APOCII, APOE, APOAI, SREBP-1C, VLDL-R, PLTP, and LPL; the genes encoding proteins involved in bile-acids metabolism include, e.g., OSTα/β, BSEP, MRP2, SHP, CYP7A1, FGF19, SULT2A1, and UGT2B4; and the genes encoding proteins involved in carbohydrate metabolism include, e.g., PGCla, PEPCK, and GLUT2. FXR target genes: BSEP, SHP, OSTβ and CYP7A1 were evaluated following stimulation of Compounds 3, 5, 6, and 7 on HepG2 cells for 18 hours. Compound L1 was used as a control.

Data set [5] has as its system HepG2 cells. The data set is described as follows: In-vitro cytotoxicity, ATP content. It is filed as cell-based. As to conditions: Table 5B, HepG2. The source says: To evaluate in-vitro cytotoxicity of a compound of the invention, two different assay methods are employed. The assays evaluate cell viability by measuring ATP levels and cytotoxicity by measuring LDH release. […] It has been called the “molecular unit of currency” when it comes to intracellular energy transfer.
(§1) An additional method to determine the viability of cells is to detect the integrity of the membrane that defines the cellular compartmentalization. Measuring the leakage of components out of the cytoplasm, in damaged cell membranes, indicates loss of membrane integrity, and LDH release is the method used to determine common toxicity in cells. HepG2 cells are treated with a compound of the invention, and serial dilutions are performed. LCA dilutions are added to the plated cells as assay controls together with no-cell and untreated cells. The assay is performed in triplicate for each test compound concentration.

The test system of data set [6] is HepG2 cells. The data set is described as follows: In-vitro cytotoxicity, membrane integrity (LDH release). It is filed as cell-based.
Description: (§2) To evaluate in-vitro cytotoxicity of a compound of the invention, two different assay methods are employed. The assays evaluate cell viability by measuring ATP levels and cytotoxicity by measuring LDH release. Adenosine Triphosphate (ATP) nucleotide represents the source of energy at the basic molecular level, as it is a multifunctional molecule that is used in every cell as a coenzyme and is an integral part of the mitochondrial DNA (Kangas, et al., Medical Biology, 1984, 62, 338-343; Crouch, et al., J Immunol. Methods, 1993, 160, 81-88; and Petty, et al., J Biolumin. Chemilumin. 1995, 10, 29-34). It has been called the “molecular unit of currency” when it comes to intracellular energy transfer.
as §1
A general note: LDH leaks from cells whose membrane has failed.

The target in another data set is CYP1A2 (Homo sapiens (Human), UniProt P05177). The data set is described as follows: CYP450 inhibition, fluorescent substrate, recombinant baculosomes. Format: in vitro ADME. As for the experimental part: (§3) To evaluate the potential of a compound of the invention for drug-drug interactions, the six main CYP450 isoforms (CYP1A2, CYP2C9, CYP2C19, CYP2D6, CYP2E1, CYP3A4) are investigated (Obach, et al., J Pharmacol. Exp. Ther, 2006, 316, 336-348).
(§4) To determine interaction between a compound of the invention and cytochrome P450 enzymes, the compound of the invention is analyzed by its capacity to inhibit (or not) the production of a fluorescent signal, using recombinant CYP450 proteins (baculosomes; Invitrogen), substrates and inhibitors (Bidstrup, et al., Br J Clin. Pharmacol, 2003, 56, 305-14). As a positive control, a selective inhibitor for each CYP450 isoform is tested in the same plate.

Another data set concerns the target CYP2C19 (Homo sapiens (Human), UniProt P33261). Described as above. It is filed as in vitro ADME. As to conditions: read-out: CYP2C19 IC50. The protocol: as §3, §4
The target in a further data set is CYP2C9 (Homo sapiens (Human), UniProt P11712). The description is as above. Format: in vitro ADME. As to conditions: read-out: CYP2C9 IC50. The protocol: as §3, §4
Sequence of CYP2C9 (P11712 whole entry): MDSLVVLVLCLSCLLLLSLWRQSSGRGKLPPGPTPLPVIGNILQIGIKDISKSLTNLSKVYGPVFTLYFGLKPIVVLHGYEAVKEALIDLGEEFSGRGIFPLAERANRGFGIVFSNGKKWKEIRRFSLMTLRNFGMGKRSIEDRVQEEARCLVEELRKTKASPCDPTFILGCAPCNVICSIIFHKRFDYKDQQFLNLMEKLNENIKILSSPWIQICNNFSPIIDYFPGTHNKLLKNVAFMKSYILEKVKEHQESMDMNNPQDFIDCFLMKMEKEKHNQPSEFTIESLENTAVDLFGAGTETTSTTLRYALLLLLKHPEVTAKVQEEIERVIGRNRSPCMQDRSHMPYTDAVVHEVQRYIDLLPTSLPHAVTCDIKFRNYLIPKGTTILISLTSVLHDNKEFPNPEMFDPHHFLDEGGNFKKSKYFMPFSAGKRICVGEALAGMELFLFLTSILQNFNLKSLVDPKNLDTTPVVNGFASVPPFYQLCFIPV
A further data set has as its target CYP2D6 (Homo sapiens (Human), UniProt P10635). The data set is described as above. Conditions: read-out: CYP2D6 IC50. It is filed as in vitro ADME. As for the experimental part:
as §3, §4

The target of another data set is CYP2E1 (Homo sapiens (Human), UniProt P05181). The data set is described as above. It is filed as in vitro ADME. As to conditions: read-out: CYP2E1 IC50. The protocol:
as §3, §4

The next data set deals with CYP3A4 (Homo sapiens (Human), UniProt P08684). The description is as above. Format: in vitro ADME. The protocol:
as §3, §4

A further data set has as its target hERG potassium channel (Homo sapiens (Human), UniProt Q12809). The data set can be described thus: biochemical. The source says: The assay is based on the assumption that the hERG potassium channel activity contributes to the resting membrane potential in permanently transfected cells, and thus a block of hERG channels should result in a depolarization of the cell membrane. The assay is designed to identify potential hERG channel blockers by producing data that accurately correlates with patch-clamp electrophysiology studies.
Membrane preparations from Chinese hamster ovary cells stably transfected with hERG potassium channel are used to evaluate the potential inhibitory effect of a compound of the invention on this channel using the Predictor™ fluorescence polarization assay. Reduction of membrane polarization as a result of inhibition of the hERG potassium channel is directly correlated with a reduction of the fluorescence polarization (FP).
An assay window more than 100 mP (millipolarization) is considered good. The non-linear regression curves are obtained by GraphPad Prism (GraphPad Software Inc.) analysis, to calculate the IC50 values.

The nature of data set [7]: Critical micellar concentration. Format: physicochemical. As to conditions: determined in […] NaCl water solution. As for the experimental part:
(§5) Physiochemical properties of a compound of the invention such as water solubility, critical micellar concentration, surface tension, and LogPA were determined using methods known in the art.

Data set [8] can be described thus: 1-octanol-water partition coefficient of ionized species. It is filed as physicochemical. As for the experimental part: as §5
A short description of data set [9]: In-vitro cytotoxicity, membrane integrity (LDH release). It is filed as cell-based. As to conditions: human; HepG2; read-out: Membrane Integrity (LDH measure) LC50.
Description: as §2, §1

The mark [10] stands for this setting: Blue substrate, read-out: CYP3A4 (Blue substrate) IC50.
[11] abbreviates: Green substrate, read-out: CYP3A4 (Green substrate) IC50.

Sequence of hERG potassium channel (Q12809 whole entry): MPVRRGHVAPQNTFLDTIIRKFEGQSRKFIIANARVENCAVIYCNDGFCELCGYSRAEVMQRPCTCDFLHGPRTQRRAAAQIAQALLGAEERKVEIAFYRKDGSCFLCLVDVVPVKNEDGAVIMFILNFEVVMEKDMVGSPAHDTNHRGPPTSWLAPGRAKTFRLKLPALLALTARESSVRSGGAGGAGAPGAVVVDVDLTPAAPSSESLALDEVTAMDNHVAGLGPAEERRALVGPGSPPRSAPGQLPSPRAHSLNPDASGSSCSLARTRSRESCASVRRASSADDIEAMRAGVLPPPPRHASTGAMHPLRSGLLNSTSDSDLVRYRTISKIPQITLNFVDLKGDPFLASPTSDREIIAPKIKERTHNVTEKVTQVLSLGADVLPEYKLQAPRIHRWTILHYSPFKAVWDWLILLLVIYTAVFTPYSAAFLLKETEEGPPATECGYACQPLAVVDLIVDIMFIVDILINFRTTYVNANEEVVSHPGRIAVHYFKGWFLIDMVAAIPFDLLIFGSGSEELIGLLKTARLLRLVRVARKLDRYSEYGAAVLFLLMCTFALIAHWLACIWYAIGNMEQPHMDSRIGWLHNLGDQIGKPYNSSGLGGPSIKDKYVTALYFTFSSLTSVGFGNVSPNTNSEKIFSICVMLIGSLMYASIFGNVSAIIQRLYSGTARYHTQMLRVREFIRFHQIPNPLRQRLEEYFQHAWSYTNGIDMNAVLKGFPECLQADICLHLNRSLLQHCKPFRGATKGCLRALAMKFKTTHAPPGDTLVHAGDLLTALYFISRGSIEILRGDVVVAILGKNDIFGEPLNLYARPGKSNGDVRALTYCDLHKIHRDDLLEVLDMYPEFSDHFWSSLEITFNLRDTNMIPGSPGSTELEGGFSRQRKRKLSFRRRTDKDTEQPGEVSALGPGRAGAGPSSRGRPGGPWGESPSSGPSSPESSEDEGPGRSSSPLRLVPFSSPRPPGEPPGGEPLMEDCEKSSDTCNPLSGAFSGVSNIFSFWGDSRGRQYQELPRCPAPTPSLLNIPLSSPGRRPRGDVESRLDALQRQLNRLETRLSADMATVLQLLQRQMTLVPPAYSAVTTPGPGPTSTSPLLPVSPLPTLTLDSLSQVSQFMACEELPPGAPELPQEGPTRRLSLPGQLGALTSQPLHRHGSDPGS
Sequence of CYP3A4 (P08684 whole entry): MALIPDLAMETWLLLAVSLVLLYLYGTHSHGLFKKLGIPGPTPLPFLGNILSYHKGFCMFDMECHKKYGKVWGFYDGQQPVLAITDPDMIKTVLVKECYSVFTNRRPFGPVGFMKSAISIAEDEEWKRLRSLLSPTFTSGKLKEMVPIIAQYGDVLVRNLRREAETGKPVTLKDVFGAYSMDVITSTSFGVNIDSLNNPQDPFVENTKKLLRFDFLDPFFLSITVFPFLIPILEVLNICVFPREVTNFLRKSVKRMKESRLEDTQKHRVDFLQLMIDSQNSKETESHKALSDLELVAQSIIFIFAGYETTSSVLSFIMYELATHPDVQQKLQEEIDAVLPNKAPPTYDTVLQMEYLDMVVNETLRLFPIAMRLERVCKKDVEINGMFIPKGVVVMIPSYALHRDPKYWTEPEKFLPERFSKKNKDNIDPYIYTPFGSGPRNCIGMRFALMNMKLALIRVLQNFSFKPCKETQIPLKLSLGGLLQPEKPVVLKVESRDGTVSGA
Sequence of CYP2E1 (P05181 whole entry): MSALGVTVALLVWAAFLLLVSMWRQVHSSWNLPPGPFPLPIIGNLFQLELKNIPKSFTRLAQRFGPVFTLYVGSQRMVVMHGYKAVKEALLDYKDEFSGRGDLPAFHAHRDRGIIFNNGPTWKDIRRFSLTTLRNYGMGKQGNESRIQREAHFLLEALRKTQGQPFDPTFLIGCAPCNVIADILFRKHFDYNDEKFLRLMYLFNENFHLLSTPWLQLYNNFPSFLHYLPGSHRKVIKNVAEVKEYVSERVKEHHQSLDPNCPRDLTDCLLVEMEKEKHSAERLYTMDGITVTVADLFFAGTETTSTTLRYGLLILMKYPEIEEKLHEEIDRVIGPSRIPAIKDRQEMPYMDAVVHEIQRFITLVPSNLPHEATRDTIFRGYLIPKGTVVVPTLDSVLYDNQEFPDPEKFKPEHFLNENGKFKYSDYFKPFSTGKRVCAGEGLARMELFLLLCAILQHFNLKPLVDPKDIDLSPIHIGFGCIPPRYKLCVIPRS
Sequence of mTGR5 (Q80SS6 whole entry): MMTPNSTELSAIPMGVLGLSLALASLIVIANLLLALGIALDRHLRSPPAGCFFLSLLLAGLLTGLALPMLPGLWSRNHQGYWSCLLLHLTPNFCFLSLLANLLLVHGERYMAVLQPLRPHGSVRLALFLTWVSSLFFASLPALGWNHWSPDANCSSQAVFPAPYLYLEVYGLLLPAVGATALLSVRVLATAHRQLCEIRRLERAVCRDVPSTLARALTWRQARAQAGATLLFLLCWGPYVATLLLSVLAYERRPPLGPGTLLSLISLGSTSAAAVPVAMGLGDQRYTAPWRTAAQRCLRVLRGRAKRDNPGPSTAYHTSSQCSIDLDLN
Sequence of rTGR5 (Q80T02 whole entry): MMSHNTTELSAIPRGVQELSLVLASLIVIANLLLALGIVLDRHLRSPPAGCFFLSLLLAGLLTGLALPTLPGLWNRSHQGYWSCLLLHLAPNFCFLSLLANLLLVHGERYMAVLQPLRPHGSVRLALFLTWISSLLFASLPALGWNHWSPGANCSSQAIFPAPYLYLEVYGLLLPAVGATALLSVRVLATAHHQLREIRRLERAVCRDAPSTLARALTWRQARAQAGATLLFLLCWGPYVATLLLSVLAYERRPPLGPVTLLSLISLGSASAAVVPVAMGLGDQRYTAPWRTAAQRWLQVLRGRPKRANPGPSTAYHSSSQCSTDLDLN
Sequence of CYP2D6 (P10635 whole entry): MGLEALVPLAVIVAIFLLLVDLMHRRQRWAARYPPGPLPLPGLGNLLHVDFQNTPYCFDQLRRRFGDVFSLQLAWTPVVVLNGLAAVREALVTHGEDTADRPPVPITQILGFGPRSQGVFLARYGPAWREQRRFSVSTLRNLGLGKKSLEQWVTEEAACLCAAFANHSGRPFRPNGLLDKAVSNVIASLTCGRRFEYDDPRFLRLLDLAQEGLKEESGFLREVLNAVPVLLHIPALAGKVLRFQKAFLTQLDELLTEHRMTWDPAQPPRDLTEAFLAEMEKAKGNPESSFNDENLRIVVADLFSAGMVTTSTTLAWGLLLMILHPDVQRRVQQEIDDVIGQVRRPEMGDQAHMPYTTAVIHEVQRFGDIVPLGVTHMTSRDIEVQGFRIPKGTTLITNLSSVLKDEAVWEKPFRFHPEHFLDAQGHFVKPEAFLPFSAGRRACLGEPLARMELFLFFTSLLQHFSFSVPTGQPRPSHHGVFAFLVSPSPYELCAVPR
Sequence of CYP2C19 (P33261 whole entry): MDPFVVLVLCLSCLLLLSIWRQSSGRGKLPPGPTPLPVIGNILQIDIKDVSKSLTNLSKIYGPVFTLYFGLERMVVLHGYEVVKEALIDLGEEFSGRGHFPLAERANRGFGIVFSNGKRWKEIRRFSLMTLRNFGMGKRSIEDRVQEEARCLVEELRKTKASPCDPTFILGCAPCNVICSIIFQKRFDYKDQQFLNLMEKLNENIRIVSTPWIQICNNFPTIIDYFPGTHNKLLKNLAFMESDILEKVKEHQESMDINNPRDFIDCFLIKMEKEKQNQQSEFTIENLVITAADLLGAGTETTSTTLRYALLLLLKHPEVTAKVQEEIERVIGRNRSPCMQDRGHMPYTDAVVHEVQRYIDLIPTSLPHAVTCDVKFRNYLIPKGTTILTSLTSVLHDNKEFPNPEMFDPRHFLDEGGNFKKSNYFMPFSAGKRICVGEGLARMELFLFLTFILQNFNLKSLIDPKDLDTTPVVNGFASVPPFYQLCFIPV

Consider `CC[C@H]1[C@@H](O)C2C3CC[C@H]([C@H](C)Cc4nc(=O)o[nH]4)[C@@]3(C)C[C@H](O)C2[C@@]2(C)CC[C@@H](O)C[C@@H]12` (stereo partly drawn) [Compound 6, 3α,7α,11β-trihydroxy-6α-ethyl-22-(1,2,4-oxadiazol-5-oxo-3-yl)-23,24-bisnor-5β-cholane], for which the “HTR-FRET (cAMP) Human TGR5 EC50” value at hTGR5 [1] is on record as “No activity”. The “hTGR5 CHO EC50” value on hTGR5 [2] was “No activity”. The “mTGR5 CHO EC50” value at mTGR5 is on record as “No activity”. Moreover, the “rTGR5 CHO EC50” value on rTGR5 is reported as “No activity”. This compound displayed an EC50 with dTGR5 of 1.5 ± 0.3 µM. Moreover, in [3], the “Activation of nuclear receptor panel, agonist mode” value is given as “Neither compound activated any of the receptors”. Further, in data set [3], the “Activity on nuclear receptor panel, antagonist mode” value was “Neither compound activated any of the receptors”. Moreover, in data set [4], the “Modulation of FXR target genes BSEP, SHP, OSTβ and CYP7A1” value is “significantly bind to FXR in hepatic cells modulating FXR target genes”. Also, the “ATP Content EC50” value with HepG2 cells [5] was “No toxicity”. The “Membrane Integrity (LDH measure) LC50” value with HepG2 cells [6] is “No toxicity”. Further, the IC50 on CYP1A2, on CYP2C19, on CYP2C9, at CYP2D6, on CYP2E1 and on CYP3A4 (setting [10]) was above 10 µM in each case. For the same compound, the figures for the IC50 at CYP3A4 (setting [11]) and against hERG potassium channel were above 10 µM and above 100 µM, respectively. The “hERG potassium channel inhibition (in words)” value at hERG potassium channel is “Compounds L1, 3, 5, 6 and 7 did not inhibit hERG potassium channel”. Moreover, in [7], the “CMC: Critical Micellar Concentration” value is 28 mM. Moreover, the “LogPA−: 1-octanol-water partition coefficient as ionized species” value in data set [8] is 1.7.

Consider `CC[C@H]1[C@@H](O)C2C3CC[C@H]([C@H](C)CCc4nc(=O)o[nH]4)[C@@]3(C)C[C@H](O)C2[C@@]2(C)CC[C@@H](O)C[C@@H]12` (stereo partly drawn) [Compound 7, 3α,7α,11β-Trihydroxy-6α-ethyl-23-(1,2,4-oxadiazol-5-oxo-3-yl)-24-nor-5β-cholane], for which the “HTR-FRET (cAMP) Human TGR5 EC50” value on hTGR5 [1] was “No activity”. Also, the “hTGR5 CHO EC50” value on hTGR5 [2] is on record as “No activity”. Moreover, the EC50 at mTGR5 came to 9.5 ± 2 µM; with dTGR5 it was 7.6 ± 0.01 µM. Further, the “rTGR5 CHO EC50” value on rTGR5 is “No activity”. For the same compound, in data set [3], the “Activation of nuclear receptor panel, agonist mode” value was “Neither compound activated any of the receptors”. Besides, the “Activity on nuclear receptor panel, antagonist mode” value in [3] was “Neither compound activated any of the receptors”. In addition, the “Modulation of FXR target genes BSEP, SHP, OSTβ and CYP7A1” value in data set [4] is on record as “significantly bind to FXR in hepatic cells modulating FXR target genes”. In the data set with HepG2 cells [5], the “ATP Content EC50” value is listed as “No toxicity”. Besides, the “Membrane Integrity (LDH measure) LC50” value in the data set with HepG2 cells [6] is recorded as “No toxicity”. In addition, the IC50 at CYP1A2, on CYP2C19, on CYP2C9, at CYP2D6, on CYP2E1 and at CYP3A4 (setting [10]) was above 10 µM throughout. In addition, the values for the half-maximal inhibitory concentration (IC50) on CYP3A4 (setting [11]) and at hERG potassium channel were above 10 µM and above 100 µM, respectively. Besides, the “hERG potassium channel inhibition (in words)” value on hERG potassium channel was “Compounds L1, 3, 5, 6 and 7 did not inhibit hERG potassium channel”. In addition, the “LogPA−: 1-octanol-water partition coefficient as ionized species” value in [8] amounted to 2.0.

Take `C[C@H](CCC(=O)O)[C@H]1CC[C@H]2[C@@H]3CC[C@@H]4C[C@H](O)CC[C@]4(C)[C@H]3CC[C@]12C` [LCA, lithocholic acid, reference compound]: the EC50 with HepG2 cells [5] (Homo sapiens) was determined as 75 ± 5 µM. Also, the CC50 in data set [9] worked out at 100 ± 5 µM.
